Test results reported in patent EP4800015A1, “AZABICYCLO DERIVATIVE AND PREPARATION METHOD THEREFOR, AND USE” (Zhejiang Hisun Pharmaceutical Co., Ltd., priority 2023, dated 2025).
pIC50: −log10 of the molar value.

Tests used:
RL95-2 cells = experiment: Inhibition of RL95-2 cell proliferation (CellTiter-Glo); assay type: cell-based; details: Homo sapiens; RL95-2 cells (MSI-H), 120 hours
Method: The following method was used to determine the effect of the compounds of the present disclosure on RL95-2 cell proliferation. RL95-2 cells (MSI-H cells) were purchased from Cell Resource Center of Shanghai Institutes for Biological Sciences, Chinese Academy of Sciences, and cultured in DMEM/F12 medium (Gibco, catalog No. A4192001) containing 10% fetal bovine serum, 100 U penicillin, and 100 µg/mL streptomycin. Cell viability was determined by CellTiter-Glo® Luminescent Cell Viability Assay kit (Promega, catalog No. G7573).
The experiment was performed according to the steps of the kit manual, which is briefly described as follows: test compounds were first dissolved in DMSO to prepare 10 mM stock solutions, and then diluted with medium to prepare test samples, with final compound concentrations ranging from 10000 nM to 1.52 nM. Cells in logarithmic growth phase were seeded into 96-well cell culture plates at a density of 500 cells per well and cultured overnight at 37 °C in a 5% CO2 incubator, and then test compounds were added and cultivation continued for 120 hours. After the cultivation was completed, 50 µL of CellTiter-Glo detection reagent was added to each well, shaken for 5 minutes, and then left to stand for 10 minutes. Luminescence values of each well were read on a microplate reader using Luminescence mode. The percentage inhibition at each concentration point was calculated by comparison with the control group (0.1% DMSO), and then IC50 values for the compounds for inhibition of cell proliferation were obtained using nonlinear regression analysis of compound concentration logarithm versus inhibition rate in GraphPad Prism 9 software, as shown in Table 3.
The IC50 value results of the compounds of the present disclosure are represented by A, wherein "A" indicates 1 nM < IC50 ≤ 100 nM. Table 3 IC50 data for inhibition of RL95-2 cell proliferation by the compounds of the present disclosure

recombinant human WRN = target: T1, recombinant human WRN (Homo sapiens, UniProt Q14191); experiment: Inhibition of WRN enzyme activity (ATPase), ADP-Glo Kinase Assay; assay type: biochemical; details: WRN protein 5 nM, Flap 0.1 nM, ATP 30 µM; read-out: IC50
T1 construct: purchased BPS 101264
Summary of the method: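 ATPase activity was measured by ADP-Glo luminescence after a 10-min room-temperature reaction with 30 µM ATP and 0.1 nM Flap26 oligonucleotide substrate. The 5 nM WRN had first been exposed to compound (0.004–1000 nM) for 15 min in pH 7.5 Tris buffer with 2 mM MgCl2. IC50 values came from log-concentration regression against the DMSO control.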

T1 sequence (Q14191 whole entry): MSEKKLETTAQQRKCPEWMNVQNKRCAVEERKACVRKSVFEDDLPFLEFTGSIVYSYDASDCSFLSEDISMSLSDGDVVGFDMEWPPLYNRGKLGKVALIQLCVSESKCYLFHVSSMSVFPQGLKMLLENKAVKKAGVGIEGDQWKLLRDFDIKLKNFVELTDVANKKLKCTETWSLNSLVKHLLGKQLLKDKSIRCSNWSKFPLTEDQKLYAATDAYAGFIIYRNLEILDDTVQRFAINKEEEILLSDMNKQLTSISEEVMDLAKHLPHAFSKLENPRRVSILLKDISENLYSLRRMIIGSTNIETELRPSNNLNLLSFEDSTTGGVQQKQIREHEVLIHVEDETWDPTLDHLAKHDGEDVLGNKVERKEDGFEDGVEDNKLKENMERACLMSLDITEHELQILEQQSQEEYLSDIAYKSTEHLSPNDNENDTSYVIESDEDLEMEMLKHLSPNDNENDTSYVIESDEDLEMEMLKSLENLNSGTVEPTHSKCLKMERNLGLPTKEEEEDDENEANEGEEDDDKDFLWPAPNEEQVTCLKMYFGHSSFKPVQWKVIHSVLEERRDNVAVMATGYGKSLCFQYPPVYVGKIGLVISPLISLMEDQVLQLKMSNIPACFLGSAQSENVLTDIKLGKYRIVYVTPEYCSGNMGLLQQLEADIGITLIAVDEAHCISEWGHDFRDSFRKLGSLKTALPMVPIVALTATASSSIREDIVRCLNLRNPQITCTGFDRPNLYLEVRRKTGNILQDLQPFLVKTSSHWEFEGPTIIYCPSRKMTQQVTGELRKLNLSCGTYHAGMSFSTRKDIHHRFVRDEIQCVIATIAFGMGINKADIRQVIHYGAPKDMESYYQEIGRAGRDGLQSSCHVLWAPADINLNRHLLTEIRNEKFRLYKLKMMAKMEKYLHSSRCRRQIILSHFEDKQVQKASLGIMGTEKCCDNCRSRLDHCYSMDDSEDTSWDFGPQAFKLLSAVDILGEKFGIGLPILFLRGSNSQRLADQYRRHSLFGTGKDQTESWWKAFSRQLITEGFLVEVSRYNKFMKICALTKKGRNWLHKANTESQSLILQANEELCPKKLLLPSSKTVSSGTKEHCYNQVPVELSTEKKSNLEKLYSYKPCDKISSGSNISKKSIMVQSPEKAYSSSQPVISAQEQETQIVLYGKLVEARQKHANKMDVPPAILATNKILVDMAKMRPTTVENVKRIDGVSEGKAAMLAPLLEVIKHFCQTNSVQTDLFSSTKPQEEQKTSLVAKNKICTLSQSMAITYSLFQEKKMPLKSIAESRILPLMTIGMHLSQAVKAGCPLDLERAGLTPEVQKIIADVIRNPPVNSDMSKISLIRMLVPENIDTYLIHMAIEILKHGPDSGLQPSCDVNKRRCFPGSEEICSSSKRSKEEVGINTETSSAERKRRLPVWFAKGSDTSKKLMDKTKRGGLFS

| SMILES | pIC50 (RL95-2 cells) | pIC50 (recombinant human WRN) |
| --- | --- | --- |
| CCc1c(N2CCN(C(=O)c3ncnc(C)c3O)CC2)c(=O)n2nc(-c3ccc4ccoc4c3)nc2n1CC(=O)Nc1ccc(S(F)(F)(F)(F)F)cc1 [Example 77, 2-(2-(benzofuran-6-yl)-5-ethyl-6-(4-(5-hydroxy-6-methylpyrimidine-4-carbonyl)piperazin-1-yl)-7-oxo-[1,2,4]triazolo[1,5-a]pyrimidin-4(7H)-yl)-N-(4-(pentafluoro-λ^6-sulfaneyl)phenyl)acetamide] | 7.00 to 9.00 | 7.00 to 9.00 |
| CCc1c(N2CCN(C(=O)c3ncnc(C)c3O)CC2)c(=O)n2nc(C3=CC4CC4C3)nc2n1CC(=O)Nc1ccc(S(F)(F)(F)(F)F)cc1Cl (stereo not drawn) [Example 167, 2-(2-(bicyclo[3.1.0]hex-2-en-3-yl)-5-ethyl-6-(4-(5-hydroxy-6-methylpyrimidine-4-carbonyl)piperazin-1-yl)-7-oxo-[1,2,4]triazolo[1,5-a]pyrimidin-4(7H)-yl)-N-(2-chloro-4-(pentafluoro-λ^6-sulfaneyl)phenyl)acetamide] | 7.00 to 9.00 | 7.00 to 9.00 |
| CCc1c(N2CCN(C(=O)c3ncnc(C)c3O)CC2)c(=O)n2nc(C3=CCCCOC3)nc2n1CC(=O)Nc1ccc(C(F)(F)F)cc1Cl [Example 62, N-(2-chloro-4-(trifluoromethyl)phenyl)-2-(5-ethyl-6-(4-(5-hydroxy-6-methylpyrimidine-4-carbonyl)piperazin-1-yl)-7-oxo-2-(2,5,6,7-tetrahydrooxepin-3-yl)-[1,2,4]triazolo[1,5-a]pyrimidin-4(7H) -yl)acetamide] | 7.00 to 9.00 | 7.00 to 9.00 |
| CCc1c(N2CCN(C(=O)c3ncnc(C)c3O)CC2)c(=O)n2nc(-c3cc4ccccc4[nH]3)nc2n1CC(=O)Nc1ccc(C(F)(F)F)cc1Cl [Example 73, N-(2-Chloro-4-(trifluoromethyl)phenyl)-2-(5-ethyl-6-(4-(5-hydroxy-6-methylpyrimidine-4-carbonyl)piperazin-1-yl)-2-(1H-indol-2-yl)-7-oxo-[1,2,4]triazolo[1,5-a]pyrimidin-4(7H)-yl)acetamide] | 7.00 to 9.00 | 7.00 to 9.00 |
| CCc1c(N2CCN(C(=O)c3ncnc(C)c3O)CC2)c(=O)n2nc(-c3cc4ccccc4n3C)nc2n1CC(=O)Nc1ccc(C(F)(F)F)cc1Cl [Example 74, N-(2-chloro-4-(trifluoromethyl)phenyl)-2-(5-ethyl-6-(4-(5-hydroxy-6-methylpyrimidine-4-carbonyl)piperazin-1-yl)-2-(1-methyl-1H-indol-2-yl)-7-oxo-[1,2,4]triazolo[1,5-a]pyrimidin-4(7H)-yl)ac etamide] | 7.00 to 9.00 | 7.00 to 9.00 |
| CCc1c(N2CCN(C(=O)c3ncnc(C)c3O)CC2)c(=O)n2nc(C3=CCCCCC3)nc2n1CC(=O)Nc1ccc(S(F)(F)(F)(F)F)cc1Cl [Example 70, N-(2-chloro-4-(pentafluoro-λ^6-sulfaneyl)phenyl)-2-(2-(cyclohept-1-en-1-yl)-5-ethyl-6-(4-(5-hydroxy-6-methylpyrimidine-4-carbonyl)piperazin-1-yl)-7-oxo-[1,2,4]triazolo[1,5-a]pyrimidin-4(7H) -yl)acetamide] | 7.00 to 9.00 | 7.00 to 9.00 |
| Cc1ncnc(C(=O)N2CCN(c3c(C4CC4)n(CC(=O)Nc4ccc(C(F)(F)F)cc4Cl)c4nc(-c5ccc6c(c5)CCO6)nn4c3=O)CC2)c1O [Example 152, N-(2-chloro-4-(trifluoromethyl)phenyl)-2-(5-cyclopropyl-2-(2,3-dihydrobenzofuran-5-yl)-6-(4-(5-hydroxy-6-methylpyrimidine-4-carbonyl)piperazin-1-yl)-7-oxo-[1,2,4]triazolo[1,5-a]pyrimidin-4 (7H)-yl)acetamide] | 7.00 to 9.00 | 7.00 to 9.00 |
| CCc1c(N2CCN(C(=O)c3ncccc3O)CC2)c(=O)n2nc(C3=CC4CC(=O)CC4C3)nc2n1CC(=O)Nc1ccc(S(F)(F)(F)(F)F)cc1 (stereo not drawn) [Example 71, 2-(5-ethyl-6-(4-(3-hydroxypicolinoyl)piperazin-1-yl)-7-oxo-2-(5-oxo-1,3a,4,5,6,6a-hexahydropentalen-2-yl)-[1,2,4]triazolo[1,5-a]pyrimidin-4(7H)-yl)-N-(4-(pentafluoro-λ^6-sulfaneyl)phenyl)acetamide] | 7.00 to 9.00 | > 9.00 |
| CCc1c(N2CCN(C(=O)c3ncnc(C)c3O)CC2)c(=O)n2nc(C3=CCCCOC3)nc2n1CC(=O)Nc1ccc(S(F)(F)(F)(F)F)cc1 [Example 63, 2-(5-ethyl-6-(4-(5-hydroxy-6-methylpyrimidine-4-carbonyl)piperazin-1-yl)-7-oxo-2-(2,5,6,7-tetra hydrooxepin-3-yl)-[1,2,4]triazolo[1,5-a]pyrimidin-4(7H)-yl)-N-(4-(pentafluoro-λ^6-sulfaneyl)phenyl)acetamide] | 7.00 to 9.00 | 7.00 to 9.00 |
| CCc1c(N2CCN(C(=O)c3ncnc(C)c3O)CC2)c(=O)n2nc(C3=CC4CC4C3)nc2n1CC(=O)Nc1ccc(S(F)(F)(F)(F)F)cc1 (stereo not drawn) [Example 66, 2-(2-(Bicyclo[3.1.0]hex-2-en-3-yl)-5-ethyl-6-(4-(5-hydroxy-6-methylpyrimidine-4-carbonyl)piperazin-1-yl)-7-oxo-[1,2,4]triazolo[1,5-a]pyrimidin-4(7H)-yl)-N-(4-(pentafluoro-λ^6-thiol)phenyl)acetamide] | 7.00 to 9.00 | > 9.00 |
| CCc1c(N2CCN(C(=O)c3ncnc(C)c3O)CC2)c(=O)n2nc(C3=CCC4(CC3)COC4)nc2n1CC(=O)Nc1ccc(C(F)(F)F)cc1Cl [Example 65, N-(2-chloro-4-(trifluoromethyl)phenyl)-2-(5-ethyl-6-(4-(5-hydroxy-6-methylpyrimidine-4-carbonyl)piperazin-1-yl)-7-oxo-2-(2-oxaspiro[3.5]non-6-en-7-yl)-[1,2,4]triazolo[1,5-a]pyrimidin-4(7H)-yl)acetamide] | 7.00 to 9.00 | 7.00 to 9.00 |
| CCc1c(N2CCN(C(=O)c3ncnc(C)c3O)CC2)c(=O)n2nc(-c3ccc4c(c3)CCO4)nc2n1CC(=O)Nc1ccc(SC(F)(F)F)cc1F [Example 89, 2-(2-(2,3-Dihydrobenzofuran-5-yl)-5-ethyl-6-(4-(5-hydroxy-6-methylpyrimidine-4-carbonyl)piperazin-1-yl)-7-oxo-[1,2,4]triazolo[1,5-a]pyrimidin-4(7H)-yl)-N-(2-fluoro-4-((trifluoromethyl)thio)phenyl)acetamide] | 7.00 to 9.00 | 7.00 to 9.00 |
| CCc1c(N2CCN(C(=O)c3ncnc(C)c3O)CC2)c(=O)n2nc(-c3cccc4ccoc34)nc2n1CC(=O)Nc1ccc(C(F)(F)F)cc1Cl [Example 69, 2-(2-(benzofuran-7-yl)-5-ethyl-6-(4-(5-hydroxy-6-methylpyrimidine-4-carbonyl)piperazin-1-yl)-7-oxo-[1,2,4]triazolo[1,5-a]pyrimidin-4(7H)-yl)-N-(2-chloro-4-(trifluoromethyl)phenyl)acetamide] | 7.00 to 9.00 | > 9.00 |
| CCc1nc2n(CC(=O)Nc3ccc(C(F)(F)F)cc3Cl)c(CC)c(N3CCN(C(=O)c4ncnc(C)c4O)CC3)c(=O)n2n1 [Example 28, N-(2-chloro-4-(trifluoromethyl)phenyl)-2-(2,5-diethyl-6-(4-(5-hydroxy-6-methylpyrimidine-4-carbonyl)piperazin-1-yl)-7-oxo-[1,2,4]triazolo[1,5-a]pyrimidin-4(7H)-yl)acetamide] |  | 7.00 to 9.00 |
| CCc1c(N2CCN(C(=O)c3ncnc(C)c3O)CC2)c(=O)n2nc(/C=C/C(=O)N3CCC3)nc2n1CC(=O)Nc1ccc(C(F)(F)F)cc1Cl [Example 194, (E)-2-(2-(3-(azetidin-1-yl)-3-oxoprop-1-en-1-yl)-5-ethyl-6-(4-(5-hydroxy-6-methylpyrimidine-4-carbonyl)piperazin-1-yl)-7-oxo-[1,2,4]triazolo[1,5-a]pyrimidin-4(7H)-yl)-N-(2-chloro-4-(trifluor omethyl)phenyl)acetamide] |  | 7.00 to 9.00 |
| CCc1c(N2CCN(C(=O)c3ncnc(C)c3O)CC2)c(=O)n2nc(-c3ccn4ncnc4c3)nc2n1CC(=O)Nc1ccc(C(F)(F)F)cc1Cl [Example 137, 2-(2-([1,2,4]triazolo[1,5-a]pyridin-7-yl)-5-ethyl-6-(4-(5-hydroxy-6-methylpyrimidine-4-carbonyl)piperazin-1-yl)-7-oxo-[1,2,4]triazolo[1,5-a]pyrimidin-4(7H)-yl)-N-(2-chloro-4-(trifluoromethyl)phenyl)acetamide] |  | 7.00 to 9.00 |
| CCc1c(N2CCN(C(=O)c3ncnc(C)c3O)CC2)c(=O)n2nc(N3CCCOCC3)nc2n1CC(=O)Nc1ccc(C(F)(F)F)cc1Cl [Example 1, N-(2-chloro-4-(trifluoromethyl)phenyl)-2-(5-ethyl-6-(4-(5-hydroxy-6-methylpyrimidine-4-carbonyl)piperazin-1-yl)-2-(1,4-oxazepan-4-yl)-7-oxo-[1,2,4]triazolo[1,5-a]pyrimidin-4(7H)-yl)acetamide] |  | 7.00 to 9.00 |
